# Results taken from the supplement of paper PMC11061612.
# Columns and labels:
# Test in all cases: Bliss excess, mean over the matrix (fraction); higher = more synergy
# [1] = tested on: LU-99A (Non-Small Cell Lung Carcinoma)
# Outline: (§1)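 Cell lines grown in DMEM/F12 or RPMI with 10% FBS were plated in 1536-well plates and held 24 hours at 37°C, 5% CO2 before 72 hours of exposure to two-drug dose matrices, with DMSO typically at 0.2%. CellTiter-Glo 2.0 luminescence gave viability, which was converted to inhibition. Vehicle wells were set to 0 and blank wells to 1. Combination Emax is the second-highest inhibition in the matrix, and Bliss excess is the observed combination effect minus the expected EA + EB − EA·EB, where EA and EB are the single-agent effects.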
# [2] = tested on: IGR-1 (Melanoma)
# Outline: as §1
# [3] = tested on: NCI-H2369 (Mesothelioma)
# Outline: as §1
# [4] = tested on: EM-2 (Chronic Myelogenous Leukemia)
# Outline: as §1
# [5] = tested on: DOV13 (Ovarian Carcinoma)
# Outline: as §1
# [6] = tested on: NCI-H1781 (Lung Adenocarcinoma)
# Outline: as §1
# [7] = tested on: SK-N-FI (Neuroblastoma)
# Outline: as §1
# [8] = tested on: CAL-78 (Chondrosarcoma)
# Outline: as §1
# [9] = tested on: MDA-MB-231 (Breast Carcinoma)
# Outline: as §1
# [10] = tested on: TE-5 (Esophageal Squamous Cell Carcinoma)
# Outline: as §1
# [11] = tested on: HPAC (Pancreatic Carcinoma)
# Outline: as §1
# [12] = tested on: NCI-H1793 (Lung Adenocarcinoma)
# Outline: as §1
# [13] = tested on: SW1990 (Pancreatic Carcinoma)
# Outline: as §1
# [14] = tested on: MFH-ino (Other Solid Carcinomas)
# Outline: as §1
# [15] = tested on: CTV-1 (T-Lymphoblastic Leukemia)
# Outline: as §1
# [16] = tested on: SNU-C5 (Colorectal Carcinoma)
# Outline: as §1
# [17] = tested on: NALM-6 (B-Lymphoblastic Leukemia)
# Outline: as §1
# [18] = tested on: G-292-Clone-A141B1 (Osteosarcoma)
# Outline: as §1
# [19] = tested on: TGBC24TKB (Biliary Tract Carcinoma)
# Outline: as §1
# [20] = tested on: JiyoyeP-2003 (Burkitt's Lymphoma)
# Outline: as §1
SMILES,Bliss excess [1],Bliss excess [2],Bliss excess [3],Bliss excess [4],Bliss excess [5],Bliss excess [6],Bliss excess [7],Bliss excess [8],Bliss excess [9],Bliss excess [10],Bliss excess [11],Bliss excess [12],Bliss excess [13],Bliss excess [14],Bliss excess [15],Bliss excess [16],Bliss excess [17],Bliss excess [18],Bliss excess [19],Bliss excess [20]
"CCN(CCO)CCCOc1ccc2c(Nc3cc(CC(=O)Nc4cccc(F)c4)[nH]n3)ncnc2c1 [AZD2811] + O=C(c1cc(Cc2n[nH]c(=O)c3ccccc23)ccc1F)N1CCN(C(=O)C2CC2)CC1 [Olaparib] (first compound max 1 µM, 7x7, partner max 10 µM)",-0.0181,-0.0059,0.0055,-0.0589,-0.0824,-0.0293,-0.0001,0.0006,-0.0175,-0.0181,0.0032,-0.0264,-0.0302,-0.0318,0.0712,-0.0041,-0.0086,0.0252,-0.0102,0.0809
"Cc1cc2ncnn2cc1Nc1ncc2c(n1)n(C1CCOCC1)c(=O)n2C [AZD7648] + C=CCn1c(=O)c2cnc(Nc3ccc(N4CCN(C)CC4)cc3)nc2n1-c1cccc(C(C)(C)O)n1 [AZD1775] (first compound max 10 µM, partner max 1 µM)",-0.0262,-0.0255,0.0034,-0.015,-0.0795,-0.0222,-0.0415,-0.0147,0.0218,-0.0386,0.0067,0.0622,-0.0255,0.0118,0.0096,0.0457,-0.041,-0.0124,0.0098,0.0246
"CC(=O)c1c(C)c2cnc(Nc3ccc(N4CCNCC4)cn3)nc2n(C2CCCC2)c1=O [Palbociclib] + Cn1cnc2c(F)c(Nc3ccc(Br)cc3Cl)c(C(=O)NOCCO)cc21 [Selumetinib] (first compound max 10 µM, 7x7, partner max 10 µM)",-0.0398,0.0661,-0.0483,0.0533,-0.233,-0.0532,0.016,-0.0463,0.0613,-0.0511,0.0461,-0.012,-0.0228,-0.0237,0.0496,-0.0615,0.0335,-0.0291,0.0495,0.0443
"COc1nnc2ccc(N3CCC(c4ccc(OCCN5CCN(C)C(=O)[C@H]5C)cc4)CC3)nn12 [AZD5153] + C=CCn1c(=O)c2cnc(Nc3ccc(N4CCN(C)CC4)cc3)nc2n1-c1cccc(C(C)(C)O)n1 [AZD1775] (first compound max 1 µM, partner max 1 µM)",-0.02,0.0203,-0.0392,-0.0217,-0.0561,-0.0744,-0.105,-0.0766,-0.0768,-0.0148,-0.111,-0.0548,-0.0567,-0.0837,0.0151,-0.0291,-0.0559,-0.0475,-0.0367,-0.0401
"CN(CCO)CC[C@H](CSc1ccccc1)Nc1ccc(S(=O)(=O)NC(=O)c2ccc(N3CCC([C@@H](O)c4ccccc4-c4ccc(Cl)cc4)CC3)cc2)cc1S(=O)(=O)C(F)(F)F [AZD4320] + C[C@@H](Nc1cc(F)cc(F)c1)c1cc(C(=O)N(C)C)cc2c(=O)cc(N3CCOCC3)oc12 [AZD8186] (first compound max 1 µM, 7x7, partner max 3 µM)",-0.0296,0.0019,-0.0251,0.0055,-0.0141,0.0358,-0.0165,0.0323,0.0174,-0.0144,-0.0014,0.0516,0.0048,-0.0163,0.0326,-0.0704,0.0514,-0.0014,0.0011,0.0195
"COc1nnc2ccc(N3CCC(c4ccc(OCCN5CCN(C)C(=O)[C@H]5C)cc4)CC3)nn12 [AZD5153] + C[C@@H]1COCCN1C2=NC(=NC(=C2)C3(CC3)[S@](=N)(=O)C)C4=C5C=CNC5=NC=C4 [AZD6738] (first compound max 1 µM, 7x7, partner max 10 µM)",-0.0213,0.0759,0.0409,0.039,-0.0623,0.0033,0.0549,0.0093,-0.0477,-0.0316,0.0368,0.0127,-0.0424,-0.0801,0.0194,0.0359,-0.0624,0.0166,0.0292,-0.047
"Cc1cc2ncnn2cc1Nc1ncc2c(n1)n(C1CCOCC1)c(=O)n2C [AZD7648] + CN(C)CCCOc1ccc(-c2ccc3ncc4c(c3c2)n(C2CCOCC2)c(=O)n4C)cn1 [AZD0156] (first compound max 10 µM, 7x7, partner max 1 µM)",-0.0208,-0.0223,0.0327,0.0183,-0.0169,0.0151,0.0029,-0.0091,0.0146,-0.0362,-0.0025,0.0044,-0.0182,-0.0299,0.0449,0.0202,-0.0184,-0.0261,0.009,-0.0067
"COc1cccc(OCCCN)c1-c1cc(Nc2cnc(C#N)cn2)n[nH]1 [Prexasertib] + Cc1cc2ncnn2cc1Nc1ncc2c(n1)n(C1CCOCC1)c(=O)n2C [AZD7648] (first compound max 1 µM, 7x7, partner max 10 µM)",-0.0343,0.0116,-0.0252,-0.0274,0.0069,0.0024,-0.0084,-0.0473,0.0128,0.0129,-0.0074,0.0257,-0.0317,-0.0301,-0.0495,-0.0495,-0.044,-0.049,-0.0412,0.017
